Assay: 40-day study in ob/ob mice on high fat diet: body weight and fat, metabolic parameters, liver indicators
Type: in vivo, C57 black ob/ob mice
Conditions: day 43
Experimental: Forty C57 black ob/ob mice were allocated to five groups of eight for study over 40 days as follows:
High fat diet—no treatment;
High fat diet—100 mg/kg/OD PYN22;
High fat diet—300 mg/kg/OD PYN22; • High fat diet—3 mg/kg/OD Rosiglitazone (positive control).
Mice were weighed twice per week and food intake measured daily throughout the study. Any laxative effects of treatments were visually examined and recorded.
Oral glucose tolerance tests were conducted on Day 7, Day 21 and Day 35.
Energy expenditure was measured at Day 14.
Fasting plasma insulin and lipids were measured on Days 7, 21 and 35.
Three days before sacrifice, 100 ul blood samples were taken from all animals to provide plasma glucose, insulin, free fatty acid, triglycerides, cholesterol and HDL-cholesterol.
At sacrifice, body mass and fat mass were calculated; the same parameters were also calculated for liver, heart and white adipose tissues.

CN(CCOc1ccc(CC2SC(=O)NC2=O)cc1)c1ccccn1 (centres unmarked) [Rosiglitazone]
actual liver weight (FIG. 11C): no effect
relative (% body weight) liver weight (FIG. 11D): no effect

From patent US8524291B2, “Anti-obesity product and its method of preparation” (Chongquing Institute of Ecological Materia Medica Co. Ltd., priority 2006, dated 2013)
